Measurements taken from patent EP4620955A1, “MC4R ANTAGONIST COMPOUND, PHARMACEUTICAL COMPOSITION AND PHARMACEUTICAL USE THEREOF” (Changchun Genescience Pharmaceutical Co., Ltd., priority 2022, dated 2024).

How the values were obtained:
[1] = biological target: T1, MC4R (Homo sapiens, UniProt P32245); assay: Assay of MC4R antagonist activity in cells in vitro (cAMP assay, Melanotan I stimulation); format: cell-based; details: flipin-293-MC4 cell line, Melanotan I as agonist
T1 construct: expressed in transfected cells; host or cells: flipin-293-MC4 (Flp-In 293 host, hygromycin selection)
T1 sequence (P32245 whole entry): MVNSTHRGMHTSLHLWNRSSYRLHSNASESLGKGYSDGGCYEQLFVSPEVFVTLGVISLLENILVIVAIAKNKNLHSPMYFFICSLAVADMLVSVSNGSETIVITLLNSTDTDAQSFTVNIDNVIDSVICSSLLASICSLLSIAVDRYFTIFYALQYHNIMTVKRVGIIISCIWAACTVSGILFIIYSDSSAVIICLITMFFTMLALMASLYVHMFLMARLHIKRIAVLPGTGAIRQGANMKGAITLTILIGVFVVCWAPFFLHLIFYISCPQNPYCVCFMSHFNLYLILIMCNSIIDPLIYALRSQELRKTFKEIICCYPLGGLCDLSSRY
Protocol: Test Example 1: Assay of MC4R antagonist activity in cells in vitro
a. Experimental consumables:
b. Experimental steps • ✔ Cell line: flipin-293-MC4 • ✔ Cell culture medium: DMEM, 10% fetal bovine serum, 1 × PS, 200 µg/mL hygromycin • ✔ Experimental buffer: HBSS, 20 mM HEPES, 0.1% BSA, 500 µM IBMX • ✔ Positive compound: ML00253764 c. Antagonist detection • 1. Digested cells were suspended in the experimental buffer, and then inoculated into the 384-well cell culture plate. • 2. The to-be-detected compound was added to the cell plate, and incubated at 37°C for 10 min. • 3. Melanotan I was added to the cell plate, and incubated at 37°C for 30 min. • 4. Two detection reagents EU cAMP tracer and ulight anti camp were thawed and diluted with a lysis solution in the kit. • 5. The diluted detection reagents were added to the cell plate and incubated at room temperature for 1 h. • 6. Reading was carried out by Envision. (Excitation light: 340 nm, emission light: 615 nm and 665 nm) d. Data analysis • 1. %Inhibition calculation: %Inhibition = (Signalcmpd−SignalAve_VC)/(SignalAve_PC−SignalAve_VC) × 100. [formula] • Signalcmpd: compound signal value; • SignalAve_VC: negative control signal value; • SignalAve_PC: positive control signal value; • %inhibition: inhibition percentage. • 2. Calculation of IC50 of the compound using the nonlinear fitting equation in GraphPad: Y = Bottom + (Top−Bottom)/(1+10^(∧)((LogIC50−X)×HillSlope)) [formula] X: logarithmic value of the concentration of the compound; Y: inhibition percentage

[2] = Pharmacokinetic study on the tested compound in SD male rats; format: in vivo; details: IV 1 mpk/PO 2 mpk
Protocol: On the day of administration, the tested compound was prepared with 5% DMSO + 5% Solutol + 90% Saline as a solvent into a solution for administration for use.
The solution for administration was administered to an intravenous injection IV group at a dose of 1 mg/kg in a concentration of 0.2 mg/mL. The solution for administration was administered to an oral gavage PO group at a dose of 2 mg/kg in a concentration of 0.2 mg/mL. The animals in the PO group were required to fast overnight in advance, drink water freely, and be fed 4 hours after administration. The IV group was not required to fast.
The animals were weighed before administration. On the day of administration, the solution was IV/PO-administered once in an administration amount calculated based on the weight. In the IV group, blood was collected from veins at 0.083 h, 0.25 h, 0.5 h, 1.0 h, 2.0 h, 4.0 h, 8.0 h, and 24 h after administration. In the PO group, blood was collected from veins at 0.25 h, 0.5 h, 1.0 h, 2.0 h, 4.0 h, 6.0 h, 8.0 h, and 24 h after administration. The amount of blood collected was about 0.20 mL. K2-EDTA was used in blood collection tubes as an anticoagulant. The collected blood sample was centrifuged (centrifugation conditions: 6800 g, 6 min, 2°C to 8°C) within 1 h to obtain plasma. The to-be-tested sample was stored in a refrigerator at -80°C before analysis.
The concentration of the tested compound in the plasma of the SD male rats was detected by the validated LC-MS/MS method.

[3] = Sprague-Dawley (SD), rat, plasma

| IC50 [1] | Compound | also measured |
| --- | --- | --- |
| 26.2 nM | COc1cc([C@@H](C)C(=O)N2CC[C@H](Nc3ccc(-c4ncc(C#N)cn4)c(C)n3)C2)c(F)cn1 [Compound 110, 2-(6-(((S)-1-((R)-2-(5-fluoro-2-methoxypyridine-4-yl)propionyl)pyrrolidine-3-yl)amino)-2-methylpyridine-3-yl)pyrimidine-5-nitrile] |  |
| 0.9 nM | COc1cc([C@@H](C)C(=O)N2CC[C@H](Nc3ccc(-c4nccc(C#N)n4)c(C)n3)C2)c(Cl)cn1 [Compound 113, 2-(6-(((S)-1-((R)-2-(5-chloro-2-methoxypyridine-4-yl)propionyl)pyrrolidine-3-yl)amino)-2-methylpyridine-3-yl)pyrimidine-4-nitrile] |  |
| 2.78 nM | COc1ccc2nc(N[C@@H]3CN(C(=O)[C@H](C)c4cc(OC)ncc4F)CC34CC4)nc(C)c2c1 [Compound 115, (R)-2-(5-fluoro-2-methoxypyridine-4-yl)-1-((S)-7-((6-methoxy-4-methylquinazoline-2-yl)amino)-5-azaspiro[2.4]heptane-5-yl)propan-1-one] |  |
| 1.57 nM | COc1cc([C@@H](C)C(=O)N2C[C@@H](Nc3ccc4cc(OC)c(F)cc4n3)C3(CC3)C2)c(F)cn1 [Compound 117, (R)-2-(5-fluoro-2-methoxypyridine-4-yl)-1-((S)-7-((7-fluoro-6-methoxyquinoline-2-yl)amino)-5-azaspiro[2.4]heptane-5-yl)propan-1-one] |  |
| 1.71 nM | COc1cc([C@@H](C)C(=O)N2C[C@@H](Nc3ccc(-c4nc(C(F)F)n(C)n4)c(C)n3)C3(CC3)C2)c(F)cn1 [Compound 119, (R)-1-((S)-7-((5-(5-(difluoromethyl)-1-methyl-1H-1,2,4-triazole-3-yl)-6-methylpyridine-2-yl)amino)-5-azaspiro[2.4]heptane-5-yl)-2-(5-fluoro-2-methoxypyridine-4-yl)propan-1-one] |  |
| 1.06 nM | COc1cc([C@@H](C)C(=O)N2C[C@@H](Nc3ccc(-c4nc(C)n(C)n4)c(C)n3)C3(CC3)C2)c(F)cn1 [Compound 132, (2R)-1-[(7S)-7-{[5-(1,5-dimethyl-1H-1,2,4-triazole-3-yl)-6-methylpyridine-2-yl]amino}-5-azaspiro[2.4]heptane-5-yl]-2-(5-fluoro-2-methoxypyridine-4-yl)propan-1-one] |  |

Continued, molecule first:

| Compound | IC50 [1] | also measured |
| --- | --- | --- |
| COc1cc([C@@H](C)C(=O)N2CCC(Nc3ccc(-c4ncccn4)c(C)n3)C2)c(F)cn1 (stereo partly drawn) [Compound 001, (2R)-2-(5-fluoro-2-methoxypyridine-4-yl)-1-(3-((6-methyl-5-(pyrimidine-2-yl)pyridine-2-yl)amino)pyrrolidine-1-yl)propyl-1-one] | 16.4 nM |  |
| COc1cc([C@@H](C)C(=O)N2C[C@@H](C)[C@H](Nc3ccc(-c4ncccn4)c(C)n3)C2)c(F)cn1 [Compound 051-2, (R)-2-(5-fluoro-2-methoxypyridine-4-yl)-1-((3R,4S)-3-methyl-4-((6-methyl-5-(pyrimidine-2-yl)pyridine-2-yl)amino)pyrrolidine-1-yl)propan-1-one] | 10.6 nM |  |
| COc1ccc2nc(N[C@@H]3CN(C(=O)[C@H](C)c4cc(OC)ncc4Cl)CC34CC4)nc(C)c2c1 [Compound 118] | 3.75 nM |  |
| COc1cc([C@@H](C)C(=O)N2C[C@@H](Nc3ccc(-c4ncn(C)n4)c(C)n3)C3(CC3)C2)c(F)cn1 [Compound 136, (2R)-2-(5-fluoro-2-methoxypyridine-4-yl)-1-[(7S)-7-{[6-methyl-5-(1-methyl-1H-1,2,4-triazole-3-yl)pyridine-2-yl]amino}-5-azaspiro[2.4]heptane-5-yl]propan-1-one] | 1.28 nM |  |
| COc1cc([C@@H](C)C(=O)N2CC[C@H](Nc3ccc(-c4cn(C)c(OC(F)F)n4)c(C)n3)C2)c(F)cn1 [Compound 197, (R)-1-((S)-3-((5-(2-(difluoromethoxy)-1-methyl-1H-imidazol-4-yl)-6-methylpyridine-2-yl)amino)pyrrolidine-1-yl)-2-(5-fluoro-2-methoxypyridine-4-yl)propan-1-one] |  | F [2]: 11.1%; AUC [2, 3]: 0.043 µg·h/mL; Cmax [2, 3]: 0.035 µg/mL; clearance [2, 3]: 5.21 L/h/kg; half-life [2, 3]: 1.2 h |
